Data set [1] deals with primary human AML cells. As to the kind of experiment: MTS assay in primary AML cells on HS5 stromal cells. It counts as cell-based. Conditions: 96 hours. The protocol: Triplicate wells were set up for each condition.
Cpd3 efficacy was assessed in primary AML samples. Due to the poor in vitro viability of primary cells, these assays were performed in the presence of a support layer of human bone marrow stromal cells (HS5). Cells were treated with Cpd3 or BQR for 96 hours, followed by viability using an MTS assay. FIGS. 2A-2B show representative data for proliferation of primary human AML cells in the presence of a representative disclosed compound, Cpd3, compared to a reference compound, brequinar (BQR), using a MTS cell proliferation assay as described herein below. Briefly, primary AML cells were cultured in the presence human bone marrow stromal cells, and were treated with vehicle (DMSO), or varying doses of Cpd3 or brequinar sodium (BQR) for 96 hours. Cell growth was determined at 96 hours relative to the vehicle (DMSO) control using an MTS assay (N=6 primary AML samples). […] The IC50 values determined were variable, with an […] of about 0.2 μM in some samples. However, in other primary cell samples an IC50 could not be determined (FIG. 2A).

Data set [2] deals with p53 signaling pathway in MOLM13, MV4-11, OCI-AML3. Briefly: Immunoblots for MDM2, p53, p-γH2AX, p21 in AML cell lines. Conditions: 1 μM, 24 hours. The data set is classed as cell-based. The protocol:
FIGS. 6A-6F show representative data and analysis for the effect of a representative disclosed compound, Cpd3, on the inhibition of MDM2. FIGS. 6A-6C show representative immunoblots for cells following vehicle treatment, treatment with a representative disclosed compound, Cpd3, or treatment with a reference compound, brequinar (indicated as “BQR” in the figures) using methods as described herein above. Briefly, AML cell lines were treated with vehicle, 1 μM Cpd3 or 1 μM BQR for 24 hours. Lysates were prepared and immunoblots were performed for MDM2, p53, p-γH2AX, p21 and GAPDH used as loading controls. […] That is, Cpd3 promotes a p53 response evident by both upregulation of the downstream target p21, with compensatory induction of MDM2. […] These preliminary data validate that Cpd3 is a potent inhibitor of DHODH in AML, and further preclinical development of Cpd3 is warranted.

A short description of data set [3]: Pharmacokinetic study, single dose by IV, IP, PO. The data set is classed as in vivo, wild type B6 mice. Conditions: 10 mg/kg single dose; for AUC(0-t) / Tmax / bioavailability / half-life: B6, mouse, plasma; for Cmax: B6, mouse plasma. From the text: LC-MS/MS Assay Materials: Acetonitrile and methanol were LC-MS grade (Fisher Scientific (Fair Lawn, N.J., USA). Other chemicals were as follows: formic Acid (98%, v/v in water; Fisher Scientific, Fair Lawn, N.J., USA); ammonium acetate (Sigma Aldrich Inc.); water: DDH2O obtained from a Millipore water system; and brequinar was obtained from Sigma. (>99% purity). Solvent A: 0.1% formic acid in water. Solvent B: 0.1% Formic Acid in methanol and acetonitrile. Internal Standard (“IS”) precipitation solution was 150 ng/ml internal standards in acetonitrile: water (3:1, v/v).
Sample preparation: To 10 μL plasma sample was added 100 μL of working IS solution and 20 μL MeOH. Samples were then vortexed for 30 seconds, followed by centrifugation (Eppendorf 5415 R centrifuge) at 10,000 rpm for 8 minutes at 4° C. Supernatant of each sample was transferred into an autosampler vial and sealed with rubber/Teflon crimp cap. Sample volume that was injected onto HPLC was 5 μL. The calibrations samples were prepared at a test compound concentration of 1000, 500, 250, 100, 50, 10, 5 ng/mL in mouse plasma. The quality control samples were as follows: QC1=750 ng/mL, OC2=75 ng/mL, QC3=25 ng/mL, LLOQ=5 ng/mL.
HPLC Parameters: Accucore Vanquish C18 column (100×2.1 mm, dp=1.5 μm) used in a Vanquish UHPLC system, using a XBridge® BEH C18, 5-μm guard column. Mobile phase: gradient as provided below in Table 8 below. Column temperature: 40° C.±5° C.; Autosampler temperature: 10° C.±5° C. Flow rate: 0.4 ml/min. run time: 5.0 min.
The mass spectrometer used was a TSQ Quantiva (Thermo Fisher Scientific).
Briefly, wild type B6 mice were injected with a single dose (10 mg/kg) of Cpd3 by three different injection routes: oral gavage (PO), intravenous (IV) and intraperitoneal (IP) (N=4 per route). The vehicle used was 15% ethanol, 30% polyethylene glycol (PEG), and this same vehicle was used for each delivery route. Cpd3 was prepared as a 2.5 mg/mL concentration and delivered at 10 mg/kg (volume delivered in microliters was 4 times the weight of the mouse in grams). Blood plasma was sampled at time zero (0) and […] additional time points (15, 30 and 60 minutes, and 2, 6 and 24 hours), and the level of Cpd3 determined in mouse plasma by LC-MS/MS assay as described above. The data were used to calculate Cmax, Clast, Tmax, T1/2, AUC, and bioavailability for Cpd3 as appropriate for the route of administration.

For data set [4], the system named is primary human AML cells. Briefly: Colony formation (CFU) assay in methocult media. The data set is classed as cell-based. Conditions: 1 μM, 14 days. The procedure:
Colony formation (CFU) assays in methocult media: CFU assays can detect an increase or decrease in the frequency of the hematopoietic progenitor proliferation and/or changes in differentiation potential in response to stimulatory, inhibitory or toxic agents. For CFU assays with primary AML cells, cells were cultured overnight in media containing IL-3, GM-CSF, SCF, and FLT3L cytokines at 20 ng/ml. 10-25K primary cells were suspended in MethoCult™ Optimum without EPO which is supplemented with SCF, IL-3, G-CSF, GM-CSF along with vehicle, 1 μM Cpd3 or 1 μM brequinar. After 14 days the total number of colonies was counted and the cells were solubilized from the methocult for cytospin assays described below. […] FIGS. 3A-3B show representative data for colony formation for primary human AML cells in the presence of a representative disclosed compound, Cpd3, compared to a reference compound, brequinar, or vehicle treatment using methods as described herein below. Briefly, primary AML cells were treated with vehicle (DMSO), Cpd3 (1 μM) or brequinar sodium (BQR, 1 μM) and plated in methocult media for 14 days. Results are plotted as the total number of colonies per each condition. Lines connecting data from the same patient sample are shown in order to indicate the trend within a particular sample.

The text below walks through data of patent US11999697B2, “Methods and compositions for inhibition of dihydroorotate dehydrogenase” (OHIO STATE INNOVATION FOUNDATION, priority 2018, dated 2024).

In general, AUC(0-t) refers to exposure summed from dosing to a finite time, without extrapolation to infinity. A lower AUC(0-t) goes with less exposure. The term Tmax denotes the time at which the peak concentration occurs. In general, bioavailability refers to the share of a dose that reaches the circulation, judged against a reference dose that is usually intravenous. Higher therefore signals much systemic uptake. The half-life is how long it takes for the measured level to halve. The low end stands for fast loss, the high end for slow loss. The Cmax is the peak of the concentration-time curve.

On to `CCOc1ccc(-c2ccc(-c3cc(C(=O)O)c4cc(F)ccc4n3)cc2)cc1` [Cpd3, 2-(4′-ethoxy-[1,1′-biphenyl]-4-yl)-6-fluoroquinoline-4-carboxylic acid], for which the “IC60 in primary AML samples” value in the data set with primary human AML cells [1] (HS5 stromal support, some samples) is “about 0.2 μM”. In addition, the “growth of primary AML cells” value with primary human AML cells [1] (N=6 primary AML samples) was “decreases growth of primary AML cells comparable to the reference compound”. The “induction of p53 signaling pathway and DNA damage” value in data set [2] is “induces the p53 signaling pathway and DNA damage”. In addition, in data set [3] (IP), the AUC(0-t) was determined as 120 ± 228 µg·h/mL, the Tmax turned out to be 0.31 ± 0.13 h, the bioavailability was determined as 89% and the half-life was 2.2 ± 0.11 h. In data set [3] (IP), the Cmax amounted to 40.2 ± 9.3 µg/mL and the “Clast” value came out at 0.016 ± 0.007 µg/mL. For the same molecule, in data set [3] (IV), the AUC(0-t) stood at 134 ± 217 µg·h/mL, the half-life was 2.3 ± 0.19 h, the peak level (Cmax) was 36.4 ± 14.3 µg/mL and the “Clast” value came out at 0.022 ± 0.016 µg/mL. In addition, in data set [3] (PO), the AUC(0-t) was 425 ± 163 µg·h/mL, the Tmax came out at 0.5 h, the bioavailability was found to be 32% and the half-life was 5.6 ± 1.95 h. In addition, in data set [3] (PO), the peak level (Cmax) was 12.2 ± 4.3 µg/mL and the “Clast” value was found to be 0.31 ± 0.18 µg/mL. Also, the “growth in methocult colony forming unit (CFU) assays” value in the data set with primary human AML cells [4] is recorded as “decreased growth”.
